Results taken from patent US10208040B2, “Fused imidazo-piperidine JAK inhibitors” (THERAVANCE BIOPHARMA R&D IP, LLC, priority 2017, dated 2019).
Like-named read-outs stand apart in the source and are kept apart here.

Legend:
[1] = Pharmacokinetics in plasma and lung in mouse; assay type: in vivo; details: oral aspiration, ratio of lung exposure to plasma exposure
[2] = test system: alternaria-induced BALF eosinophils; assay: Murine model of Alternaria alternata-induced eosinophilic inflammation of the lung; assay type: in vivo; details: mouse, oropharyngeal aspiration, 48 h after alternaria challenge, maximum statistically significant percent inhibition
Procedure: Airway eosinophilia is a hallmark of human asthma. Alternaria alternata is a fungal aeroallergen that can exacerbate asthma in humans and induces eosinophilic inflammation in the lungs of mice (Havaux et al. Clin Exp Immunol. 2005 February; 139(2):179-88).
Seven- to nine-week old male C57 mice from Taconic were used in the study. On the day of study, animals were lightly anesthetized with isoflurane and administered either vehicle or test compound (0.03-1.0 mg/mL, 50 μL total volume over several breaths) via oropharyngeal aspiration. Animals were placed in lateral recumbency post dose and monitored for full recovery from anesthesia before being returned to their home cage. One hour later, animals were once again briefly anesthetized and challenged with either vehicle or alternaria extract (200 ug total extract delivered, 50 μL total volume) via oropharyngeal aspiration before being monitored for recovery from anesthesia and returned to their home cage. Forty-eight hours after alternaria administration, bronchoalveolar lavage fluid (BALF) was collected and eosinophils were counted in the BALF using the Advia 120 Hematology System (Siemens).
Activity in the model is evidenced by a decrease in the level of eosinophils present in the BALF of treated animals at forty-eight hours compared to the vehicle treated, alternaria challenged control animals. Data are expressed as percent inhibition of the vehicle treated, alternaria challenged BALF eosinophils response. To calculate percent inhibition, the number of BALF eosinophils for each condition is converted to percent of the average vehicle treated, alternaria challenged BALF eosinophils and subtracted from one-hundred percent.

[3] = test system: human eosinophils; assay: IL-5 mediated eosinophil survival assay; assay type: cell-based; details: for IC50: Homo sapiens, Eosinophil, read-out: pIC50 IL-5 mediated eosinophil survival (converted)
Procedure: The potency of the test compound for IL-5 mediated eosinophil survival was measured in human eosinophils isolated from human whole blood (AllCells). Because IL-5 signals through JAK, this assay provides a measure of JAK cellular potency.
Human eosinophils were isolated from fresh human whole blood (AllCells) of healthy donors. Blood was mixed with 4.5% Dextran (Sigma-Aldrich) in a 0.9% sodium chloride solution (Sigma-Aldrich). Red blood cells were left to sediment for 35 minutes. The leukocyte rich upper layer was removed and layered over Ficoll-Paque (GE Healthcare) and centrifuged at 600 g for 30 minutes. The plasma and mononuclear cell layers were removed before the granulocyte layer was lysed with water to remove any contaminating red blood cells. Eosinophils were further purified using a human eosinophil isolation kit (Miltenyi Biotec). A fraction of the purified eosinophils were incubated with anti-CD16 FITC (Miltenyi Biotec) for 10 minutes at 4° C. in the dark. Purity was analyzed using a LSRII flow cytometer (BD Biosciences).
Cells were cultured in a 37° C., 5% CO2 humidified incubator in RPMI 1640 (Life Technologies) supplemented with 10% Heat Inactivated Fetal Bovine Serum (FBS, Life Technologies), 2 mM Glutamax (Life Technologies), 25 mM HEPES (Life Technologies) and 1× Pen/Strep (Life Technologies). Cells were seeded at 10,000 cells/well in media (50 μL). The plate was centrifuged at 300 g for 5 minutes and supernatants removed. Compounds were serially diluted in DMSO and then diluted another 500-fold to a 2× final assay concentration in media. […]
After cytokine stimulation, cells were centrifuged at 300 g for 5 min and washed twice with cold DPBS (Life Technologies). To access viability and apoptosis, cells were incubated with Propidium Iodide (Thermo Fisher Scientific) and APC Annexin V (BD Biosciences) and analyzed using a LSRII flow cytometer (BD Biosciences). IC50 values were determined from analysis of the viability curves of percent cell viability vs compound concentration. Data are expressed as pIC50 (negative decadic logarithm IC50) values.

[4] = test system: IL-4 stimulated STAT6 phosphorylation in CD3+ T cells; assay: Inhibition of IL-4 stimulated pSTAT6 in CD3+ T cells; assay type: cell-based; details: T-cell; CD3+ T cells in human PBMCs; read-out: pIC50 inhibition of IL-4 stimulated pSTAT6 (converted)
Procedure: The potency of the test compound for inhibition of interleukin-4 (IL-4) stimulated STAT6 phosphorylation was measured in CD3-positive (CD3+) T cells in human peripheral blood mononuclear cells (PBMCs) isolated from human whole blood (Stanford Blood Center) using flow cytometry. Because IL-4 signals through JAK, this assay provides a measure of JAK cellular potency.
CD3+ T cells were identified using a […] (PE) conjugated anti-CD3 antibody (Clone UCHT1, BD Biosciences), while an Alexa Fluor 647 conjugated anti-pSTAT6 antibody (pY641, Clone 18/P, BD Biosciences) was used to detect STAT6 phosphorylation.
Human peripheral blood mononuclear cells (PBMC) were isolated from human whole blood of healthy donors as in Assays 7 and 8. […] After incubation, cells were washed twice in FACS buffer before being analyzed using a LSRII flow cytometer (BD Biosciences).
To determine the inhibitory potency of the test compound in response to IL-4, the median fluorescent intensity (MFI) of pSTAT6 was measured in CD3+ T cells. IC50 values were determined from analysis of the inhibition curves of MFI vs compound concentration. Data are expressed as pIC50 (negative decadic logarithm IC50).

CCCN1Cc2[nH]c(-c3n[nH]c4cc(-c5cc(F)c(O)cc5CC)ccc34)nc2C[C@H]1C(=O)N1C[C@@H]2C[C@H]1CN2C [Example 1, ((S)-2-(6-(2-ethyl-5-fluoro-4-hydroxyphenyl)-1H-indazol-3-yl)-5-propyl-4,5,6,7-tetrahydro-3H-imidazo[4,5-c]pyridin-6-yl)((1S,4S)-5-methyl-2,5-diazabicyclo-[2.2.1]heptan-2-yl)methanone]
Lung to Plasma ratio Assay 3 [1]: A (A denotes a ratio 100-200) | Percent Inhibition of Alternaria-induced BALF Eosinophils [2]: 90 | inhibition of IL-5 mediated human eosinophil survival (in words) [3]: potently inhibit | IC50 ([3]; in the presence of 10 pg/ml IL-5): 50.1 nM | IC50 ([3]; in the presence of 1 ng/ml IL-5): 2000 nM | IC50 [4]: 20 nM

CCc1cc(O)c(F)cc1-c1ccc2c(-c3nc4c([nH]3)CN(C(C)C)[C@H](C(=O)N3CC[C@H](N(C)C)C3)C4)n[nH]c2c1 [Example 3]
Lung to Plasma ratio Assay 3 [1]: B (B denotes a ratio between 50 and 100) | Percent Inhibition of Alternaria-induced BALF Eosinophils [2]: 93 | IC50 [4]: 10 nM
